The text below walks through data of patent publication US20210255193A1, “LYSINE REACTIVE PROBES AND USES THEREOF” (The Scripps Research Institute, priority 2017, published 2021).

Molecules are shown by their SMILES.

Common to all, as to assay: competitive isoTOP-ABPP
Format in all cases: binding

The target of experiment [1] is T1, PFKM 6-phosphofructokinase, muscle type (Homo sapiens, UniProt P08237).
T1 construct: isoTOP-ABPP experiments performed in cell lysates (in vitro); endogenous in cells; host or cells: MDA-MB-231 soluble lysate
T1 sequence (P08237 1-780): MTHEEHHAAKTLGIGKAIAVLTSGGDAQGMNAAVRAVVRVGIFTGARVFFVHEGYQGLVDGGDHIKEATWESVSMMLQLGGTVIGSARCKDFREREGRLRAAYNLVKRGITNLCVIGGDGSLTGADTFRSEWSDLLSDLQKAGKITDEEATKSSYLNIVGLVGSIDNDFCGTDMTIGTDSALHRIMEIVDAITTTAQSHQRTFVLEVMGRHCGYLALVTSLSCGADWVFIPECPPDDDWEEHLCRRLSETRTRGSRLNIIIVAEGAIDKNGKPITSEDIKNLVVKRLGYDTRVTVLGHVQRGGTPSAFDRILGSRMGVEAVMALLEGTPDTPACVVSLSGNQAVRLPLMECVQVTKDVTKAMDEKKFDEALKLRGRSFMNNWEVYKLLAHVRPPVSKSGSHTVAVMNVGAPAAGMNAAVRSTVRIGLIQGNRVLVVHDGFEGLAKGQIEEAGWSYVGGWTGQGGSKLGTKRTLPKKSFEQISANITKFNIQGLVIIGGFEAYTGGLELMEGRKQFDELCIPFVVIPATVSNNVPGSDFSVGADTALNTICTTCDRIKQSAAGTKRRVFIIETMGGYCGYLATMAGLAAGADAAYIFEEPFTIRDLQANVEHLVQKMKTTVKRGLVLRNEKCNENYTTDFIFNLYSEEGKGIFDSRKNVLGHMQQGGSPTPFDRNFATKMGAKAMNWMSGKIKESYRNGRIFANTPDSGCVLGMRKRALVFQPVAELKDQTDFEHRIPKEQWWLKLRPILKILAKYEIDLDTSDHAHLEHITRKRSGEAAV
To be noted: for isoTOP-ABPP ratio (R) at liganded lysine P08237_K678: 50 uM, in vitro, sol, 231. The procedure, abridged:
(§1)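 Probe: STP-alkyne, 0.1 mM, 1 h RT, after fragment pretreatment of lysate (esters 50 μM; guanidinylators 100 μM). Tags: light = compound, heavy = DMSO, via CuAAC. Replicates averaged if SD <60% of mean; otherwise lowest ratio used when any R <4.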

Experiment [2] addresses T2, CUL2 Cullin-2 (Homo sapiens, UniProt Q13617).
T2 construct: isoTOP-ABPP experiments performed in cell lysates (in vitro); endogenous in cells; host or cells: soluble proteome of human cancer cell lines (MDA-MB-231, Ramos, Jurkat)
To be noted: for isoTOP-ABPP ratio (R) at liganded lysine Q13617_K489: 50 uM, in vitro, sol, 231. The procedure, abridged: as §1

Experiment [3] concerns the target T3, CNOT4 CCR4-NOT transcription complex subunit 4 (Homo sapiens, UniProt O95628).
T3 construct: isoTOP-ABPP experiments performed in cell lysates (in vitro); endogenous in cells; host or cells: MDA-MB-231 soluble lysate
T3 sequence (O95628 1-575): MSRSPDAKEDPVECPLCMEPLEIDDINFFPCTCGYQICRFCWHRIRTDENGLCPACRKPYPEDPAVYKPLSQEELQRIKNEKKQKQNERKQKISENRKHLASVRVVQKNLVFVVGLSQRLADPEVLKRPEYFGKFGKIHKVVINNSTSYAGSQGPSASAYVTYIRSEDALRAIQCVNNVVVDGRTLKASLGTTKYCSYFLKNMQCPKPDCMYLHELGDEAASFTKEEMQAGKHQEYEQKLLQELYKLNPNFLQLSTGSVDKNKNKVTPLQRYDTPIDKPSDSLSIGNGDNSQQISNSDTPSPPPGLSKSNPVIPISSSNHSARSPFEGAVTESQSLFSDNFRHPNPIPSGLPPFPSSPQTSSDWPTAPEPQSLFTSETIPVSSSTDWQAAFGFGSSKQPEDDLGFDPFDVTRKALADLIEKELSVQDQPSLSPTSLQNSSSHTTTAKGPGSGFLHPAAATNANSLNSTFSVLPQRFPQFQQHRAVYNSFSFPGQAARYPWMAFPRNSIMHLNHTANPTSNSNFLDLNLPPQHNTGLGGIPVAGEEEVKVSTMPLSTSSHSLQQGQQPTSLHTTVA
To be noted: for isoTOP-ABPP ratio (R) at liganded lysine O95628_K134: 50 uM, in vitro, sol, 231. The procedure, abridged: as §1

T2 sequence (Q13617 whole entry): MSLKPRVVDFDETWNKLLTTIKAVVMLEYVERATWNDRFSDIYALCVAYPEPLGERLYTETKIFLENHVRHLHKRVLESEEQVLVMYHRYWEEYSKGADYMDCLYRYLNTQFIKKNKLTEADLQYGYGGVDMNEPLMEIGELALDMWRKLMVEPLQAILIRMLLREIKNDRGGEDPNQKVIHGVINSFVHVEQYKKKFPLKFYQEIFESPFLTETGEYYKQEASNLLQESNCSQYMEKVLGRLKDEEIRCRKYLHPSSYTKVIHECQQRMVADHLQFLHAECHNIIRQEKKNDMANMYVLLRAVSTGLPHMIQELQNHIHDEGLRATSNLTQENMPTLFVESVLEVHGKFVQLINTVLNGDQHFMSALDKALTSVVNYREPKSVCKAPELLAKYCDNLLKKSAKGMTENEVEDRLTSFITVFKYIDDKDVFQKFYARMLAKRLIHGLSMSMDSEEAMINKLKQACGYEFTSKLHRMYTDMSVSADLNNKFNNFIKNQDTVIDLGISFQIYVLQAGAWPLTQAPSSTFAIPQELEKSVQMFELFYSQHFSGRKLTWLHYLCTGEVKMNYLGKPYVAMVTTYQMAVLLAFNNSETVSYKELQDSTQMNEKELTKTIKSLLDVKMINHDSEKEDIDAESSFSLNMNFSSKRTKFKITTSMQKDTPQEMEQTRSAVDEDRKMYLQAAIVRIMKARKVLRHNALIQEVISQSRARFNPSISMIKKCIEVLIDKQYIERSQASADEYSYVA

For `O=C(Oc1ccc([N+](=O)[O-])cc1[N+](=O)[O-])c1ccc(-c2ccccc2)cc1` [fragment 37, 2,4-Dinitrophenyl [1,1′-biphenyl]-4-carboxylate], the “isoTOP-ABPP ratio (R) at liganded lysine P08237_K678” value in experiment [1] came to 1.0. Further, the “isoTOP-ABPP ratio (R) at liganded lysine Q13617_K489” value in experiment [2] is 1.0. In experiment [3], the “isoTOP-ABPP ratio (R) at liganded lysine O95628_K134” value turned out to be 1.0.

Take `O=C(CC12CC3CC(CC(C3)C1)C2)Oc1ccc([N+](=O)[O-])cc1[N+](=O)[O-]` [fragment 38, 2,4-Dinitrophenyl 2-(adamantan-1-yl)acetate]: the “isoTOP-ABPP ratio (R) at liganded lysine P08237_K678” value in experiment [1] is 1.0. Moreover, the “isoTOP-ABPP ratio (R) at liganded lysine Q13617_K489” value in experiment [2] worked out at 1.4. Moreover, the “isoTOP-ABPP ratio (R) at liganded lysine O95628_K134” value in experiment [3] came out at 1.2.

For the compound `O=C(Oc1ccc([N+](=O)[O-])cc1[N+](=O)[O-])c1ccc(Oc2ccccc2)cc1` [fragment 39, 2,4-Dinitrophenyl 4-phenoxybenzoate], the “isoTOP-ABPP ratio (R) at liganded lysine P08237_K678” value in experiment [1] was found to be 1.0. The “isoTOP-ABPP ratio (R) at liganded lysine Q13617_K489” value in experiment [2] came to 20.0. Further, in experiment [3], the “isoTOP-ABPP ratio (R) at liganded lysine O95628_K134” value is given as 1.0.

For the compound `O=C(Oc1ccc([N+](=O)[O-])cc1[N+](=O)[O-])c1ccccc1Nc1cccc(C(F)(F)F)c1` [fragment 40, 2,4-Dinitrophenyl 2-((3-(trifluoromethyl)phenyl)amino)benzoate], in experiment [1], the “isoTOP-ABPP ratio (R) at liganded lysine P08237_K678” value worked out at 0.9. In addition, the “isoTOP-ABPP ratio (R) at liganded lysine Q13617_K489” value in experiment [2] stood at 20.0. Also, in experiment [3], the “isoTOP-ABPP ratio (R) at liganded lysine O95628_K134” value was found to be 1.1.

With `CC(C)(C)OC(=O)NCCCC(=O)Oc1ccc([N+](=O)[O-])cc1[N+](=O)[O-]` [fragment 41, 2,4-Dinitrophenyl 4-((tert-butoxycarbonyl)amino)butanoate], in experiment [1], the “isoTOP-ABPP ratio (R) at liganded lysine P08237_K678” value was 2.0. The “isoTOP-ABPP ratio (R) at liganded lysine Q13617_K489” value in experiment [2] was determined as 1.0. Moreover, the “isoTOP-ABPP ratio (R) at liganded lysine O95628_K134” value in experiment [3] is 1.3.

For the compound `CC(=O)Oc1ccc([N+](=O)[O-])cc1[N+](=O)[O-]` [fragment 43, 2,4-Dinitrophenyl acetate], in experiment [1], the “isoTOP-ABPP ratio (R) at liganded lysine P08237_K678” value is reported as 1.3. In addition, in experiment [2], the “isoTOP-ABPP ratio (R) at liganded lysine Q13617_K489” value is 1.2. Also, the “isoTOP-ABPP ratio (R) at liganded lysine O95628_K134” value in experiment [3] is given as 1.3.

As for `N#Cc1ccc(C(=O)Oc2ccc([N+](=O)[O-])cc2[N+](=O)[O-])cc1` [fragment 44, 2,4-Dinitrophenyl 4-cyanobenzoate], the “isoTOP-ABPP ratio, lysine P08237_K678” value in experiment [1] (50 uM_231_sol_in vitro) is on record as 1.9. For the same compound, the “isoTOP-ABPP ratio, lysine Q13617_K489” value in experiment [2] (50 uM_231_sol_in vitro) is recorded as 0.8. Further, in experiment [3] (50 uM_231_sol_in vitro), the “isoTOP-ABPP ratio, lysine O95628_K134” value is given as 2.0.

`O=C(CCc1ccc2c(c1)OCO2)Oc1ccc([N+](=O)[O-])cc1[N+](=O)[O-]` [fragment 45, 2,4-Dinitrophenyl 3-(benzo[d][1,3]dioxol-5-yl)propanoate]: the “isoTOP-ABPP ratio, lysine P08237_K678” value in experiment [1] (50 uM_231_sol_in vitro) is 4.8. Also, in experiment [2] (50 uM_231_sol_in vitro), the “isoTOP-ABPP ratio, lysine Q13617_K489” value worked out at 1.2. The “isoTOP-ABPP ratio, lysine O95628_K134” value in experiment [3] (50 uM_231_sol_in vitro) is on record as 2.8.

`O=C(ON1C(=O)CCC1=O)c1cc(C(F)(F)F)cc(C(F)(F)F)c1` [fragment 46, 3,5-Bis(trifluoromethyl)benzoic acid NHS ester]: in experiment [1] (50 uM_231_sol_in vitro), the “isoTOP-ABPP ratio, lysine P08237_K678” value stood at 1.3. Further, the “isoTOP-ABPP ratio, lysine Q13617_K489” value in experiment [2] (50 uM_231_sol_in vitro) is listed as 1.0. For the same compound, in experiment [3] (50 uM_231_sol_in vitro), the “isoTOP-ABPP ratio, lysine O95628_K134” value is listed as 5.2.

Turning to `O=C(Oc1c(F)c(F)c(C(F)(F)F)c(F)c1F)c1cc(C(F)(F)F)cc(C(F)(F)F)c1` [fragment 47, 2,3,5,6-Tetrafluoro-4-(trifluoromethyl)phenyl 3,5-bis(trifluoromethyl)benzoate], the “isoTOP-ABPP ratio, lysine P08237_K678” value in experiment [1] (50 uM_231_sol_in vitro) is reported as 0.8. Moreover, in experiment [2] (50 uM_231_sol_in vitro), the “isoTOP-ABPP ratio, lysine Q13617_K489” value is listed as 0.8. Besides, in experiment [3] (50 uM_231_sol_in vitro), the “isoTOP-ABPP ratio, lysine O95628_K134” value worked out at 1.5.

Turning to `COC(=O)NC(=NC(=O)OCC1c2ccccc2-c2ccccc21)n1cccn1` [fragment 49, N-Methoxycarbonyl-N′-9-fluorenylmethoxycarbonyl-pyrazole-1-carboxamidine], in experiment [1] (100 uM_231_sol_in vitro), the “isoTOP-ABPP ratio, lysine P08237_K678” value is on record as 5.4. For the same compound, the “isoTOP-ABPP ratio, lysine Q13617_K489” value in experiment [2] (100 uM_231_sol_in vitro) came to 1.1. The “isoTOP-ABPP ratio, lysine O95628_K134” value in experiment [3] (100 uM_231_sol_in vitro) came to 1.4.

As to `CC(C)(C)OC(=O)N=C(NC(=O)OC(C)(C)C)n1cccn1` [fragment 50, reference compound], the “isoTOP-ABPP ratio, lysine P08237_K678” value in experiment [1] (100 uM_231_sol_in vitro) was determined as 20.0. Further, the “isoTOP-ABPP ratio, lysine Q13617_K489” value in experiment [2] (100 uM_231_sol_in vitro) was 1.0. The “isoTOP-ABPP ratio, lysine O95628_K134” value in experiment [3] (100 uM_231_sol_in vitro) is on record as 1.7.

For `NC(=O)c1cc(C(F)(F)F)cc(C(F)(F)F)c1` [fragment 51, reference compound], the “isoTOP-ABPP ratio, lysine P08237_K678” value in experiment [1] (50 uM_231_sol_in vitro) is 0.8. Further, the “isoTOP-ABPP ratio, lysine Q13617_K489” value in experiment [2] (50 uM_231_sol_in vitro) is given as 1.1. Besides, the “isoTOP-ABPP ratio, lysine O95628_K134” value in experiment [3] (50 uM_231_sol_in vitro) is recorded as 0.9.
